Holding throughout (assay): growth of human tumour cells (NCI), 48 h
Test [1] concerns NCI-H226 lung.
Test [2] has as its system EKVX NSCLC.
Test [3] deals with COLO 205 colon.
Test [4] relates to MDA-MB-231 breast.
The subject of test [5] is OVCAR-4 ovarian.
Test [6] deals with SF-539 CNS.
Test [7] concerns NCI-H460 lung.
For test [8], the system named is SK-MEL-2 melanoma.
Test [9] concerns LOX IMVI melanoma.
The test system of test [10] is UACC-257 melanoma.

Molecules are shown by their SMILES.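 Cells were grown in 96-well plates and exposed to each compound for 48 hours at five concentrations; endpoints were interpolated linearly between bracketing concentrations, or set to the highest concentration if not reached. Definition used: TGI = concentration required for complete inhibition of growth.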

This passage reports TGI results from PubChem BioAssay (NCI).

Turning to `CN(C)c1ccc(/C=C2\C[C@H]3[C@@H]4CC=C5C[C@@H](O)CC[C@]5(C)[C@H]4CC[C@]3(C)[C@H]2O)cc1`, the TGI in test [1] is 34.7 µM; in [2], 23.8 µM; in [3] it was 23 µM; in [4], 34.5 µM; in [5], 98.6 µM; in test [6], 22.1 µM. Moreover, the TGI was found to be 28.9 µM in test [7], 42.9 µM in test [8], 27.1 µM in test [9] and 35.7 µM in test [10].

Turning to `COc1ccc2c3c([nH]c2c1)[C@H](C=C(C)C)N1C(=O)[C@@H]2CCCN2C(=O)[C@@H]1C3`, the TGI was more than 100 µM in test [1]; more than 100 µM in test [2]; more than 100 µM in test [3]; more than 100 µM in test [4]; more than 100 µM in [5]; 83 µM in test [6]. The TGI in test [7], in test [8], in test [9] and in test [10] was more than 100 µM in each case.

As for `C#C[C@]1(O)[C@@H](CO)O[C@@H](n2ccc(=O)[nH]c2=O)[C@@H]1O`, the TGI in test [1] was 2.66 µM; in test [2] it was more than 100 µM; in test [3], 0.173 µM; in test [4], 3.77 µM; in [5] it was 45.3 µM; in test [6], 1.39 µM. The TGI in test [7] was more than 100 µM; in [8], 3.32 µM; in [9], 1.57 µM; in [10], more than 84.5 µM.

On to `CS(=O)(=O)Nc1ccc(NCc2cnc3ccc4[nH]cccc4c23)cc1`, for which the TGI was more than 100 µM in test [1]; more than 100 µM in test [2]; 36.2 µM in test [3]; 97.4 µM in test [4]; 78.4 µM in test [5]; 68.3 µM in [6]. The TGI in [7] is more than 100 µM; in [8], 32 µM; in [9], more than 100 µM; in test [10], 51.9 µM.

As to `CCC1=C(CC2NCCc3cc(OC)c(OC)cc32)CC2c3ccccc3CCN2C1` (stereo not given), the TGI in [1] is 73.6 µM; in test [2] it was more than 100 µM; in [3] it was 21.8 µM; in test [4] it was 74.4 µM; in test [5], more than 100 µM; in test [6] it was 21.4 µM. The TGI was 25.1 µM in test [7], 29.2 µM in [8], 26.3 µM in [9] and 32 µM in [10].

Take `COc1cc2cc[n+](C)c(Cc3ccc(Oc4cc(Cc5c6cc(OC)c(OC)cc6cc[n+]5C)ccc4OC)cc3)c2cc1OC`: the TGI in test [1], in [2], in test [3], in test [4], in test [5] and in [6] was more than 100 µM throughout. In addition, the TGI in test [7], in test [8], in test [9] and in [10] was more than 100 µM each time.

Take `Nc1csc(-c2scc3c2OCCO3)c1N`: the TGI in test [1] is 42.9 µM; in test [2], 72.3 µM; in [3], 91.4 µM; in test [4], 41.4 µM; in test [5], more than 100 µM; in test [6], 47.4 µM. The TGI in test [7] was found to be 73.7 µM; in [8], 40 µM; in test [9], 30.9 µM; in test [10], 54.2 µM.

On to `Fc1c(F)c(F)c(CSc2nc3ccccc3[nH]2)c(F)c1F`, for which the TGI in [1], in test [2], in test [3], in test [4], in test [5] and in test [6] was more than 100 µM in each case. Moreover, the TGI in [7], in test [8], in [9] and in test [10] was more than 100 µM in each case.
